Where a SMILES comes first, the peptide text is derived from it.
Tests used:
HLA-A*2402 = HLA-A*2402 (Homo sapiens, UniProt P04439, D101N/D140Y/D185E/E176V/E190D/F33S/G103R/G107R/I119L/I121M/I306V/K335N/L105A/L180Q/L300P/N151K/N90K/Q86E/Q94H/R106L/R138H/R89G/T104I/T345S/V100E/W191G/Y123F); experiment: In vitro class I HLA binding assay (fluorescence polarization competition); details: allele A*2402; fluorescence polarization competition; read-out: IC50 (nM), in vitro HLA binding affinity
Outline: (§1)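 Cell-free competition assay: HLA heat-treated 53°C for 15 min to strip endogenous peptides, then mixed with fluorescent high-affinity control peptide and test peptides for 72 h to equilibrium. Displacement read by fluorescence polarization as percent inhibition; IC50 derived from a concentration range.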

HLA-A*0101 = HLA-A*0101 (Homo sapiens, UniProt P04439, A114D/A174V/A182V/D101N/D185E/E176A/E190D/L180R/Q94H/R68K/S129P/T187R/V100A/V91M/W191G); experiment: biochemical; type: binding; details: allele A*0101, fluorescence polarization competition; for IC50: read-out: IC50 (nM), in vitro HLA binding affinity
Outline: as §1

HLA-A*0301 = HLA-A*0301 (Homo sapiens, UniProt P04439); experiment: biochemical; type: binding; details: allele A*0301, fluorescence polarization competition; for IC50: read-out: IC50 (nM), in vitro HLA binding affinity
Outline: as §1

HLA-A*0201 = HLA-A*0201 (Homo sapiens, UniProt P04439, D140Y/D185E/D98H/E176V/E277Q/G131W/G231S/I119V/I121R/I166T/I218V/L300P/L318F/N151K/N90K/P208A/P217A/Q86G/Q94H/R138H/R169H/T345S); experiment: In vitro class I HLA binding assay (fluorescence polarization competition); details: allele A*0201; fluorescence polarization competition; read-out: IC50 (nM), in vitro HLA binding affinity
Outline: as §1

Molecule: N=C(N)NCCC[C@H](NC(=O)CNC(=O)[C@H](Cc1ccccc1)NC(=O)[C@@H](N)CC(N)=O)C(=O)NCC(=O)N[C@@H](CCC(N)=O)C(=O)N[C@@H](CC(N)=O)C(=O)N[C@@H](Cc1ccc(O)cc1)C(=O)N[C@@H](Cc1c[nH]c2ccccc12)C(=O)O [AMA1_020] (H-NFGRGQNYW-OH)
- IC50 (HLA-A*2402): 229 nM

Molecule: CC(C)C[C@H](NC(=O)[C@@H]1CCCN1C(=O)[C@H](Cc1ccc(O)cc1)NC(=O)[C@@H](N)CCC(=O)O)C(=O)N[C@@H](Cc1c[nH]cn1)C(=O)N[C@@H](CCC(N)=O)C(=O)N[C@@H](CCC(=O)O)C(=O)N[C@@H](Cc1c[nH]cn1)C(=O)N[C@H](C(=O)N[C@@H](Cc1ccc(O)cc1)C(=O)O)[C@@H](C)O [AMA1_052] (H-EYPLHQEHTY-OH)
- IC50 (HLA-A*2402): 999 nM

Molecule: CSCC[C@H](NC(=O)[C@H](Cc1ccc(O)cc1)NC(=O)[C@@H](N)CC(N)=O)C(=O)NCC(=O)N[C@@H](CC(N)=O)C(=O)N1CCC[C@H]1C(=O)N[C@@H](Cc1c[nH]c2ccccc12)C(=O)N[C@H](C(=O)N[C@@H](CCC(=O)O)C(=O)O)[C@@H](C)O [AMA1_104] (H-NYMGNPWTE-OH)
- IC50 (HLA-A*2402): 37900 nM

Molecule: CC(C)C[C@H](NC(=O)[C@H](Cc1ccc(O)cc1)NC(=O)[C@@H](N)CCC(N)=O)C(=O)N[C@@H](CCCCN)C(=O)N[C@@H](CC(=O)O)C(=O)NCC(=O)NCC(=O)N[C@@H](Cc1ccccc1)C(=O)N[C@@H](C)C(=O)N[C@@H](Cc1ccccc1)C(=O)O [AMA1_174] (H-QYLKDGGFAF-OH)
- IC50 (HLA-A*2402): 41.9 nM

Molecule: CC[C@H](C)[C@H](NC(=O)[C@H](CC(=O)O)NC(=O)[C@@H](N)CCC(=O)O)C(=O)N1CCC[C@H]1C(=O)N[C@@H](Cc1c[nH]cn1)C(=O)N[C@H](C(=O)N[C@@H](CC(N)=O)C(=O)N[C@@H](CCC(=O)O)C(=O)N[C@@H](Cc1ccccc1)C(=O)O)C(C)C [AMA1_321] (H-EDIPHVNEF-OH)
- IC50 (HLA-A*2402): 83000 nM

Molecule: CC[C@H](C)[C@H](NC(=O)[C@H](CC(=O)O)NC(=O)[C@H](C)NC(=O)[C@H](Cc1ccc(O)cc1)NC(=O)[C@H](CCC(=O)O)NC(=O)[C@H](CC(=O)O)NC(=O)[C@H](CCCCN)NC(=O)[C@H](Cc1ccc(O)cc1)NC(=O)[C@@H](N)CCC(=O)O)C(=O)O [AMA1_527] (H-EYKDEYADI-OH)
- IC50 (HLA-A*2402): 2100 nM

Molecule: CC[C@H](C)[C@H](NC(=O)[C@H](Cc1ccc(O)cc1)NC(=O)[C@H](CCC(=O)O)NC(=O)[C@H](CC(=O)O)NC(=O)[C@H](CC(N)=O)NC(=O)[C@H](CC(C)C)NC(=O)[C@@H](N)[C@@H](C)O)C(=O)N[C@H](C(=O)N[C@@H](CO)C(=O)N[C@@H](Cc1ccc(O)cc1)C(=O)O)C(C)C [CYRPA_285] (H-TLNDEYIVSY-OH)
- IC50 (HLA-A*0101): 213000 nM
- IC50 (HLA-A*0301): 304000 nM

Molecule: CC(C)C[C@H](NC(=O)[C@H](Cc1c[nH]cn1)NC(=O)[C@H](CCCCN)NC(=O)[C@H](Cc1ccc(O)cc1)NC(=O)[C@H](Cc1ccc(O)cc1)NC(=O)[C@H](CC(=O)O)NC(=O)[C@H](CC(C)C)NC(=O)[C@@H](N)Cc1ccccc1)C(=O)N[C@@H](CO)C(=O)N[C@@H](Cc1ccc(O)cc1)C(=O)O [RH5_181] (H-FLDYYKHLSY-OH)
- IC50 (HLA-A*0101): 646 nM
- IC50 (nM), in vitro HLA binding affinity (HLA-A*0301): Non-Binder

Molecule: CC[C@H](C)[C@H](NC(=O)[C@H](CO)NC(=O)[C@@H](N)CC(N)=O)C(=O)N[C@@H](Cc1ccc(O)cc1)C(=O)N[C@@H](Cc1c[nH]cn1)C(=O)N[C@@H](CCCCN)C(=O)N[C@@H](CO)C(=O)N[C@@H](CO)C(=O)N[C@H](C(=O)N[C@@H](Cc1ccc(O)cc1)C(=O)O)[C@@H](C)O [RH5_191] (H-NSIYHKSSTY-OH)
- IC50 (nM), in vitro HLA binding affinity (HLA-A*0101): Non-Binder
- IC50 (HLA-A*0301): 101000 nM

Molecule: CC[C@H](C)[C@H](NC(=O)[C@@H](N)CO)C(=O)N[C@@H](Cc1ccc(O)cc1)C(=O)N[C@@H](Cc1c[nH]cn1)C(=O)N[C@@H](CCCCN)C(=O)N[C@@H](CO)C(=O)N[C@@H](CO)C(=O)N[C@H](C(=O)N[C@@H](Cc1ccc(O)cc1)C(=O)O)[C@@H](C)O [RH5_192] (H-SIYHKSSTY-OH)
- IC50 (nM), in vitro HLA binding affinity (HLA-A*0101): Non-Binder
- IC50 (HLA-A*0301): 5930 nM

Molecule: CC[C@H](C)[C@H](NC(=O)[C@H](CC(=O)O)NC(=O)[C@H](CC(N)=O)NC(=O)[C@H](CS)NC(=O)[C@H](CCCCN)NC(=O)[C@H](CO)NC(=O)[C@H](CCCCN)NC(=O)[C@@H](NC(=O)[C@@H](N)CCCCN)C(C)C)C(=O)N[C@@H](CCCCN)C(=O)O [RH5_219] (H-KVKSKCNDIK-OH)
- IC50 (HLA-A*0301): 39300 nM

Molecule: CSCC[C@H](NC(=O)[C@H](CCSC)NC(=O)[C@@H](N)CCCCN)C(=O)N[C@@H](CC(=O)O)C(=O)N[C@@H](CCC(=O)O)C(=O)N[C@@H](Cc1ccc(O)cc1)C(=O)N[C@@H](CC(N)=O)C(=O)N[C@H](C(=O)N[C@@H](CCCCN)C(=O)N[C@@H](CCCCN)C(=O)O)[C@@H](C)O [RH5_302] (H-KMMDEYNTKK-OH)
- IC50 (HLA-A*0201): 511000 nM
- IC50 (HLA-A*0301): 8480 nM

Molecule: CC(C)C[C@H](NC(=O)[C@H](CC(N)=O)NC(=O)[C@@H](NC(=O)[C@H](CC(C)C)NC(=O)[C@H](CC(C)C)NC(=O)[C@@H](N)CC(C)C)[C@@H](C)O)C(=O)N[C@@H](CC(N)=O)C(=O)N[C@@H](CCCCN)C(=O)N[C@@H](CCCCN)C(=O)O [RH5_392] (H-LLLTNLNKK-OH)
- IC50 (HLA-A*0301): 14100 nM

Molecule: CC[C@H](C)[C@H](NC(=O)[C@H](Cc1ccc(O)cc1)NC(=O)[C@@H](NC(=O)[C@H](Cc1ccc(O)cc1)NC(=O)[C@H](CO)NC(=O)CN)[C@@H](C)CC)C(=O)N[C@@H](CC(=O)O)C(=O)N[C@H](C(=O)N[C@H](C(=O)N[C@@H](CCCCN)C(=O)O)[C@@H](C)CC)[C@@H](C)O [RH5_402] (H-GSYIYIDTIK-OH)
- IC50 (HLA-A*0301): 70800 nM

Molecule: CC[C@H](C)[C@H](NC(=O)[C@H](CCCCN)NC(=O)[C@@H](NC(=O)[C@@H](N)Cc1c[nH]cn1)[C@@H](C)O)C(=O)N[C@H](C(=O)N[C@@H](CC(N)=O)C(=O)N[C@@H](CC(=O)O)C(=O)N[C@@H](CCCCN)C(=O)N[C@H](C(=O)N[C@@H](CCCCN)C(=O)O)[C@@H](C)O)[C@@H](C)CC [RH5_427] (H-HTKIINDKTK-OH)
- IC50 (HLA-A*0301): 73000 nM

Molecule: CC[C@H](C)[C@H](NC(=O)[C@H](CC(N)=O)NC(=O)[C@H](CC(C)C)NC(=O)[C@@H](N)CCCCN)C(=O)N[C@@H](Cc1c[nH]c2ccccc12)C(=O)N[C@@H](CCCNC(=N)N)C(=O)N[C@H](C(=O)N[C@@H](Cc1ccccc1)C(=O)N[C@@H](CCC(N)=O)C(=O)N[C@@H](CCCCN)C(=O)O)[C@@H](C)O [RH5_443] (H-KLNIWRTFQK-OH)
- IC50 (HLA-A*0301): 2500 nM

Molecule: CC(C)C[C@H](NC(=O)[C@H](CC(C)C)NC(=O)[C@H](CCC(=O)O)NC(=O)[C@H](CC(=O)O)NC(=O)[C@H](CCCCN)NC(=O)[C@H](CCC(N)=O)NC(=O)[C@H](Cc1ccccc1)NC(=O)[C@@H](NC(=O)[C@@H](N)CCCNC(=N)N)[C@@H](C)O)C(=O)N[C@@H](CCCCN)C(=O)O [RH5_448] (H-RTFQKDELLK-OH)
- IC50 (HLA-A*0301): 24200 nM

Molecule: C[C@H](N)C(=O)N[C@H](C(=O)N[C@@H](CS)C(=O)N[C@@H](CCCCN)C(=O)N[C@@H](Cc1ccc(O)cc1)C(=O)NCC(=O)N[C@@H](Cc1ccccc1)C(=O)N[C@@H](CC(N)=O)C(=O)N[C@@H](CCCCN)C(=O)O)[C@@H](C)O [RIPR_0266] (H-ATCKYGFNK-OH)
- IC50 (HLA-A*0301): 4750 nM

Molecule: CC(C)C[C@H](NC(=O)[C@H](CO)NC(=O)[C@H](CCC(=O)O)NC(=O)[C@@H](NC(=O)[C@@H](NC(=O)[C@H](Cc1ccc(O)cc1)NC(=O)[C@H](CCCCN)NC(=O)[C@H](CC(C)C)NC(=O)[C@@H](N)CCCCN)C(C)C)[C@@H](C)O)C(=O)N[C@@H](CCCCN)C(=O)O [RIPR_0425] (H-KLKYVTESLK-OH)
- IC50 (HLA-A*0301): 3340 nM

Molecule: CC[C@H](C)[C@H](NC(=O)[C@H](CC(=O)O)NC(=O)[C@@H]1CCCN1C(=O)[C@H](CC(C)C)NC(=O)[C@@H](NC(=O)[C@@H](N)CO)[C@@H](C)CC)C(=O)N[C@@H](CC(N)=O)C(=O)N[C@@H](CCCCN)C(=O)N[C@@H](CO)C(=O)N[C@@H](CCCCN)C(=O)O [RIPR_0500] (H-SILPDINKSK-OH)
- IC50 (HLA-A*0301): 12700 nM

Molecule: C[C@@H](O)[C@H](NC(=O)[C@@H](N)CO)C(=O)N[C@@H](CS)C(=O)N[C@@H](Cc1ccc(O)cc1)C(=O)NCC(=O)N[C@@H](CC(N)=O)C(=O)N[C@@H](CCCNC(=N)N)C(=O)N[C@@H](Cc1ccccc1)C(=O)N[C@@H](CC(N)=O)C(=O)N[C@@H](Cc1ccc(O)cc1)C(=O)O [RIPR_0648] (H-STCYGNRFNY-OH)
- IC50 (HLA-A*0101): 54000 nM
- IC50 (nM), in vitro HLA binding affinity (HLA-A*0301): Non-binder

Molecule: CC(C)[C@H](NC(=O)[C@@H](N)CS)C(=O)N[C@@H](CS)C(=O)N[C@H](C(=O)N[C@@H](Cc1ccc(O)cc1)C(=O)N[C@@H](CC(N)=O)C(=O)N[C@@H](Cc1ccc(O)cc1)C(=O)N[C@@H](Cc1ccc(O)cc1)C(=O)N[C@@H](CCCCN)C(=O)N[C@@H](CCCCN)C(=O)O)[C@@H](C)O [RIPR_0924] (H-CVCTYNYYKK-OH)
- IC50 (HLA-A*0301): 14400 nM

Molecule: DLMNRTFKK [RH5_294]
- IC50 (nM), in vitro HLA binding affinity (HLA-A*0301): Non-Binder

Molecule: LSVKSKNLNK [RH5_369]
- IC50 (nM), in vitro HLA binding affinity (HLA-A*0301): Non-Binder

Molecule: NVNFLQYHFK [RH5_141]
- IC50 (nM), in vitro HLA binding affinity (HLA-A*0301): Non-Binder

Molecule: PSHNSFIKK [RH5_101]
- IC50 (nM), in vitro HLA binding affinity (HLA-A*0301): Non-Binder

Molecule: RTFKKMMDEY [RH5_298]
- IC50 (nM), in vitro HLA binding affinity (HLA-A*0101): Non-Binder
- IC50 (nM), in vitro HLA binding affinity (HLA-A*0301): Non-Binder
